Measured values from patent US8138189B2, “Substituted benzene compounds as modulators of the glucocorticoid receptor” (Hoffman-La Roche Inc., priority 2009, dated 2012).
pKi: −log10 of the molar value.

Molecular target: T1, full length human recombinant glucocorticoid receptor (Homo sapiens, UniProt P04150)
T1 construct: partially purified full length human recombinant glucocorticoid receptor; purchased Panvera/Invitrogen PV4302
T1 sequence (P04150 1-777): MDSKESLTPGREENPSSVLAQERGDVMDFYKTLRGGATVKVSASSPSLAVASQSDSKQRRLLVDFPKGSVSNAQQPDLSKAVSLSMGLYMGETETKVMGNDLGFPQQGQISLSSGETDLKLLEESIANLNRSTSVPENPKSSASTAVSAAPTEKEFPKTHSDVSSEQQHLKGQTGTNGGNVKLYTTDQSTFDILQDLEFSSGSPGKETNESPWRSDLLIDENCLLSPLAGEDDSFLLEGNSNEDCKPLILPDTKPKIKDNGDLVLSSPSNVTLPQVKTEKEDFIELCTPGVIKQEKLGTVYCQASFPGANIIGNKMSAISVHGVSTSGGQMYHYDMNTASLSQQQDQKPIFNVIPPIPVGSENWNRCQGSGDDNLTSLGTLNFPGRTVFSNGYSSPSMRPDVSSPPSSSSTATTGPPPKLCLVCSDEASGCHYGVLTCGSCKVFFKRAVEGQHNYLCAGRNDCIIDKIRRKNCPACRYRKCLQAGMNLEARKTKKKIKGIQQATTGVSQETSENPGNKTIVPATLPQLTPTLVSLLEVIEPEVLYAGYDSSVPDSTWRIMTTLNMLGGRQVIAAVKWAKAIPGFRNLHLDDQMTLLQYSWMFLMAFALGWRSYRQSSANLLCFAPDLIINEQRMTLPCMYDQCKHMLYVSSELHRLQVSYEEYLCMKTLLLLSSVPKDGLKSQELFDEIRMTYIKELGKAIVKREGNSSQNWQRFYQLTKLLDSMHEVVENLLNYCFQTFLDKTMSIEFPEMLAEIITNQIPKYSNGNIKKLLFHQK
Assay: Glucocorticoid Receptor Binding Assay (fluorescence polarization competitor assay, Fluormone GS Far Red tracer)
Outline: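 Partially purified full-length recombinant human GR with a stabilizing coactivator peptide was incubated with Fluormone GS Far Red tracer and serially diluted compound for 3 h at 22 °C in the dark, pH 7.4. Fluorescence polarization was read at 610-660 nm. IC50 came from sigmoidal fitting, and Ki from Cheng-Prusoff.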

Row | Compound | pKi
1 | COC(=O)c1cnc(Oc2ccc(C(C)C(O)(c3ccnc(Cl)c3)C(F)(F)F)c(Cl)c2)cn1 (stereo not drawn) [Example 114, 5-{3-Chloro-4-[2-(2-chloro-pyridin-4-yl)-3,3,3-trifluoro-2-hydroxy-1-methyl-propyl]-phenoxy}-pyrazine-2-carboxylic acid methyl ester] | 7.62
2 | Cc1cc(C(O)(C(C)c2ccc(-c3ccc(CC(=O)O)cc3)cc2Cl)C(F)(F)F)ccn1 (stereo not drawn) [Example 64, {3′-Chloro-4′-[3,3,3-trifluoro-2-hydroxy-1-methyl-2-(2-methyl-pyridin-4-yl)-propyl]-biphenyl-4-yl}-acetic acid] | 7.18
3 | COC(=O)Cc1ccc(COc2ccc([C@@H](C)[C@@](O)(c3cnc(C)cn3)C(F)(F)F)c(Cl)c2)cc1 (racemic) [Example 11, (4-{3-Chloro-4-[3,3,3-trifluoro-2-hydroxy-1-methyl-2-(5-methyl-pyrazin-2-yl)-propyl]-phenoxymethyl}-phenyl)-acetic acid methyl ester] | 7.08
4 | CCOC(=O)Cc1ccc(CNC(=O)c2ccc([C@@H](C)[C@@](O)(c3ccnc(Cl)c3)C(F)(F)F)c(Cl)c2)cc1 (stereo in doubt) [Example 42, [4-({3-Chloro-4-[2-(2-chloro-pyridin-4-yl)-3,3,3-trifluoro-2-hydroxy-1-methyl-propyl]-benzoylamino}-methyl)-phenyl]-acetic acid ethyl ester] | 6.55
5 | C[C@H](c1ccc(C(=O)Nc2ccc(C(=O)O)cc2)cc1Cl)[C@@](O)(c1ccnc(Cl)c1)C(F)(F)F (stereo in doubt) [Example 26, 4-{3-Chloro-4-[2-(2-chloro-pyridin-4-yl)-3,3,3-trifluoro-2-hydroxy-1-methyl-propyl]-benzoylamino}-benzoic acid] | 6.70
6 | CC(c1ccc(OCc2cnc(C(=O)O)cn2)cc1Cl)C(O)(c1ccnc(Cl)c1)C(F)(F)F (stereo not drawn) [Example 113, 5-{3-Chloro-4-[2-(2-chloro-pyridin-4-yl)-3,3,3-trifluoro-2-hydroxy-1-methyl-propyl]-phenoxymethyl}-pyrazine-2-carboxylic acid] | 7.87
7 | CCn1cc([C@@](O)([C@@H](C)c2ccc(-c3ccc(F)c(C(=O)O)c3)cc2Cl)C(F)(F)F)ccc1=O (stereo in doubt) [Example 184, 3′-Chloro-4′-[2-(1-ethyl-6-oxo-1,6-dihydro-pyridin-3-yl)-3,3,3-trifluoro-2-hydroxy-1-methyl-propyl]-4-fluoro-biphenyl-3-carboxylic acid] | 7.98
8 | COC(=O)c1ccnc(NC(=O)c2ccc([C@@H](C)[C@@](O)(c3ccnc(Cl)c3)C(F)(F)F)c(Cl)c2)c1 (stereo in doubt) [Example 27, 2-{3-Chloro-4-[-2-(2-chloro-pyridin-4-yl)-3,3,3-trifluoro-2-hydroxy-1-methyl-propyl]-benzoylamino}-isonicotinic acid methyl ester] | 7.02
9 | COC(=O)c1ccc(OCc2ccc([C@@H](C)[C@@](O)(c3ccnc(Cl)c3)C(F)(F)F)c(Cl)c2)nc1 (stereo in doubt) [Example 126, 6-{3-Chloro-4-[2-(2-chloro-pyridin-4-yl)-3,3,3-trifluoro-2-hydroxy-1-methyl-propyl]-benzyloxy}-nicotinic acid methyl ester] | 8.07
10 | CC(c1ccc(Oc2cccc(CC(=O)O)c2)cc1Cl)C(O)(c1ccnc(Cl)c1)C(F)(F)F (stereo not drawn) [Example 87, (3-{3-Chloro-4-[2-(2-chloro-pyridin-4-yl)-3,3,3-trifluoro-2-hydroxy-1-methyl-propyl]-phenoxy}-phenyl)-acetic acid] | 7.82
11 | C[C@H](c1ccc(C(=O)Nc2cc(C(=O)O)ccn2)cc1Cl)[C@@](O)(c1ccnc(Cl)c1)C(F)(F)F (stereo in doubt) [Example 29, 2-{3-Chloro-4-[2-(2-chloro-pyridin-4-yl)-3,3,3-trifluoro-2-hydroxy-1-methyl-propyl]-benzoylamino}-isonicotinic acid] | 6.77
12 | C[C@H](c1ccc(Oc2cnc(C(=O)O)cn2)c(Cl)c1Cl)[C@@](O)(c1ccc(=O)n(C)c1)C(F)(F)F (stereo in doubt) [Example 238, 5-{2,3-Dichloro-4-[3,3,3-trifluoro-2-hydroxy-1-methyl-2-(1-methyl-6-oxo-1,6-dihydro-pyridin-3-yl)-propyl]-phenoxy}-pyrazine-2-carboxylic acid] | 6.95
13 | COC(=O)c1ccc(OCCOc2ccc(C(C)C(O)(c3cnc(C)cn3)C(F)(F)F)c(Cl)c2)cc1 (stereo not drawn) [Example 9, 4-(2-{3-Chloro-4-[3,3,3-trifluoro-2-hydroxy-1-methyl-2-(5-methyl-pyrazin-2-yl)-propyl]-phenoxy}-ethoxy)-benzoic acid methyl ester] | 6.92
14 | COC(=O)c1cnc(OCc2ccc([C@@H](C)[C@@](O)(c3ccnc(Cl)c3)C(F)(F)F)c(Cl)c2)nc1 (stereo in doubt) [Example 124, 2-{3-Chloro-4-[2-(2-chloro-pyridin-4-yl)-3,3,3-trifluoro-2-hydroxy-1-methyl-propyl]-benzyloxy}-pyrimidine-5-carboxylic acid methyl ester] | 8.06
15 | CC(c1ccc(Oc2ncc(C(=O)O)cn2)cc1Cl)C(O)(c1ccnc(Cl)c1)C(F)(F)F (stereo not drawn) [Example 117, 2-{3-Chloro-4-[2-(2-chloro-pyridin-4-yl)-3,3,3-trifluoro-2-hydroxy-1-methyl-propyl]-phenoxy}-pyrimidine-5-carboxylic acid] | 6.95

These reach a higher pKi. Values come first.

Row | pKi | Compound
16 | 8.29 | CC(c1ccc(Oc2ccc(C(=O)O)c(Cl)c2)cc1Cl)C(O)(c1ccnc(Cl)c1)C(F)(F)F (stereo not drawn) [Example 82, 2-Chloro-4-{3-chloro-4-[2-(2-chloro-pyridin-4-yl)-3,3,3-trifluoro-2-hydroxy-1-methyl-propyl]-phenoxy}-benzoic acid]
17 | 8.36 | Cc1cc(C(O)(C(C)c2ccc(/C=C/c3ccc(C(=O)O)cc3)cc2Cl)C(F)(F)F)ccn1 (stereo not drawn) [Example 66, 4-((E)-2-{3-Chloro-4-[3,3,3-trifluoro-2-hydroxy-1-methyl-2-(2-methyl-pyridin-4-yl)-propyl]-phenyl}-vinyl)-benzoic acid]
18 | 8.40 | C[C@H](c1ccc(Oc2ccc(C(=O)O)c(C(F)(F)F)c2)cc1Cl)[C@@](O)(c1ccc(=O)n(C)c1)C(F)(F)F (stereo in doubt) [Example 220, 4-{3-Chloro-4-[3,3,3-trifluoro-2-hydroxy-1-methyl-2-(1-methyl-6-oxo-1,6-dihydro-pyridin-3-yl)-propyl]-phenoxy}-2-trifluoromethyl-benzoic acid]
19 | 8.42 | C[C@@H](c1ccc(Oc2cc(C(F)(F)F)c(C(=O)O)cn2)cc1Cl)[C@](O)(c1cc(Cl)c(=O)n(C)c1)C(F)(F)F (stereo in doubt) [Example 224, 6-{3-Chloro-4-[2-(5-chloro-1-methyl-6-oxo-1,6-dihydro-pyridin-3-yl)-3,3,3-trifluoro-2-hydroxy-1-methyl-propyl]-phenoxy}-4-trifluoromethyl-nicotinic acid]
20 | 8.51 | CCOC(=O)COc1cc(Oc2ccc([C@@H](C)[C@@](O)(c3ccc(=O)n(C)c3)C(F)(F)F)c(Cl)c2)ccc1F (stereo in doubt) [Example 161, (5-{3-Chloro-4-[3,3,3-trifluoro-2-hydroxy-1-methyl-2-(1-methyl-6-oxo-1,6-dihydro-pyridin-3-yl)-propyl]-phenoxy}-2-fluoro-phenoxy)-acetic acid ethyl ester]
21 | 8.59 | COC(=O)c1ccc(-c2ccc([C@H](C)[C@](O)(c3ccc(=O)n(C)c3)C(F)(F)F)c(Cl)c2)cc1Cl [Example 168, 3,3′-Dichloro-4′-[3,3,3-trifluoro-2-hydroxy-1-methyl-2-(1-methyl-6-oxo-1,6-dihydro-pyridin-3-yl)-propyl]-propylphiphenyl-4-carboxylic acid methyl ester]
22 | 8.85 | CC(c1ccc(Oc2ccc(OCC(=O)O)cc2)cc1Cl)C(O)(c1ccnc(Cl)c1)C(F)(F)F (stereo not drawn) [Example 85, (4-{3-Chloro-4-[2-(2-chloro-pyridin-4-yl)-3,3,3-trifluoro-2-hydroxy-1-methyl-propyl]-phenoxy}-phenoxy)-acetic acid]
23 | 9.22 | C[C@H](c1ccc(Oc2ccc(F)c(OCC(=O)O)c2)cc1Cl)[C@@](O)(c1ccc(=O)n(C)c1)C(F)(F)F (stereo in doubt) [Example 162, (5-{3-Chloro-4-[3,3,3-trifluoro-2-hydroxy-1-methyl-2-(1-methyl-6-oxo-1,6-dihydro-pyridin-3-yl)-propyl]-phenoxy}-2-fluoro-phenoxy)-acetic acid]
24 | 9.30 | Cc1cc([C@@](O)([C@@H](C)c2ccc(Oc3ccc(C(=O)O)c(F)c3)cc2Cl)C(F)(F)F)cn(C)c1=O [Example 248, 4-{3-Chloro-4-[(1S,2S)-2-(1,5-dimethyl-6-oxo-1,6-dihydro-pyridin-3-yl)-3,3,3-trifluoro-2-hydroxy-1-methyl-propyl]-phenoxy}-2-fluoro-benzoic acid]
